Results published in patent US20080241919A1, “Defined media for pluripotent stem cell culture” (The Burnham Institute of Medical Research, priority 2003, published 2008).

Experiments:
[1] = test system: human embryonic stem cells (hESCs); assay: Medium component requirement assay, hESCs on laminin/collagen-coated plates for seven days; format: cell-based; conditions: media that contained only the named growth factor
Protocol: (a) Media containing bFGF, insulin, and ascorbic acid sustain the healthy undifferentiated growth of hESCs on laminin/collagen-coated plates. Insulin (20 μg/ml), transferrin (8 μg/ml), albumin (for example, the commercial product known as AlbuMAXI) (10 mg/ml), and ascorbic acid (50 μg/ml) were added to a base medium that consisted of 100% DMEM/F-12 with 20 ng/ml bFGF, 2 mM L-alanyl-L-glutamine, 1×MEM essential amino acids solution, 1×MEM non-essential amino acids solution, and 100 μM β-mercaptoethanol. The degree of differentiation was judged by morphology of the colonies and Oct-4 expression. […] (red). […] However, if ascorbic acid was omitted from the media [D, H, L] […] White arrows in all panels delineate the edge of an hESC colony. The area delineated by the white square in [A], [E], and [I] indicates the approximate area that is visualized at higher magnification in [B, C], [F, G], and [J, K], respectively. [C], [G], and [K] is the image in [B], [F], and [J], respectively, merged with DAPI staining of their nuclei (blue).
(b) When either bFGF or insulin was omitted from the media, hESC colonies appeared to differentiate completely under the feeder- and serum-free conditions. […] The distinct growth effects of insulin and bFGF were further accentuated in media lacking ascorbic acid [C, F] (“NO Ascorbic Acid”). In the absence of ascorbic acid and in media that contained only insulin as the growth factor [C] (phase) (“NO Ascorbic Acid”), slower growth of the differentiated hESCs was observed (compare [A, B] to [C]). In ascorbic-acid-lacking media that contained bFGF as the only growth factor [F] […] White arrows in all panels delineate the edge of hESC colonies.
Having determined that substantial numbers of undifferentiated hESCs could be maintained over long periods in feeder-free environments using the bFGF-supplemented media described above, the necessity of other components in the medium to maintain hESCs in an undifferentiated state was next examined. “Knockout Serum Replacement” contains insulin, transferrin, ascorbic acid, amino acids, and AlbuMAX (a chromatographically-purified lipid-rich bovine serum albumin [BSA] with low IgG content, but nevertheless a xeno-derived product). Accordingly, whether insulin, transferrin, BSA, and ascorbic acid were essential components was assessed, in combination with bFGF, for maintaining hESCs in an undifferentiated state. The serum replacement components insulin (20 μg/ml), transferrin (8 μg/ml), albumin (AlbuMAX) (10 mg/ml), and ascorbic acid (50 μg/ml) were added to a base medium that consisted of DMEM/F-12 or KO-DMEM with bFGF (20 ng/ml), L-alanyl-L-glutamine or L-glutamine (2 mM), MEM essential amino acids solution (1×), MEM nonessential amino acids solution (1×), and β-mercaptoethanol (100 μM). To assay for the differentiation-forestalling activity of each of these components, undifferentiated hESCs were seeded on laminin/collagen-coated plates and cultivated for seven days in media containing one or more of the individual components. The degree of differentiation of the colonies was judged by defining morphology and Oct-4 expression.
When either bFGF or insulin was omitted from the media, more than 90% of the colonies appeared to differentiate completely within the first passage, as indicated by their differentiated morphology (FIG. 2b, A,B,D,E), their complete loss of Oct-4 expression, and their expression of the cell surface marker SSEA-1 (FIG. 2c, B,C). […] The different effects of insulin and bFGF were accentuated further in media lacking ascorbic acid. In the absence of ascorbic acid and in media containing only insulin, the growth of differentiated hESCs was simply slower (FIG. 2b, C). […] Although albumin and transferrin are not crucial components for sustaining the undifferentiated growth of hESCs, they might abet survival or maintenance of a normal colony shape.

p38 MAPK = p38 MAPK phosphorylation in hESCs (Western blot, immunocytochemistry); format: cell-based, human
Source text: (e) bFGF is essential for maintaining hESCs in a healthy undifferentiated state, in part through MAPK signaling […]. In media lacking bFGF, hESC colonies maintained on Matrigel-coated plates have a completely differentiated morphology upon the first passage [A]. To examine the signaling pathways that might be mediated by bFGF, the phosphorylation level of p38 MAPK in undifferentiated (in the presence of bFGF [+bFGF]) and differentiated (in the absence of bFGF [−bFGF]) hESCs was examined. […] White arrows delineate the edge of an hESC colony.
To help understand the molecular mechanisms underlying bFGF's role in maintaining undifferentiated growth of hESCs, the mitogen-activated protein kinase (MAPK) signaling pathway was examined.

Substance: bFGF: basic fibroblast growth factor, growth factor added to the defined hESC media
- cell morphology in differentiated colonies [1]: elliptically-shaped cells
- large differentiated cells displaying high levels of p38 phosphorylation (p38 MAPK; absence of bFGF): about 5%
- p38 MAPK form in undifferentiated hESCs by immunocytochemistry (p38 MAPK; defined media containing 20 ng/ml bFGF): unphosphorylated inactive form of p38 MAPK was present robustly
- phosphorylation levels of p38 MAPK by Western blot (p38 MAPK; increased bFGF concentrations): no changes
